The values that follow come from patent US20250144067A1, “PERSONALIZED STARVATION THERAPY FOR CANCER” (Faeth Therapeutics, Inc., priority 2021, published 2025).

Where a name gives a salt, the structure may show the parent alone. Read-outs that look alike come from different tables or passages of the source.

For experiment [1], the system named is NCI-H292 lung cancer cells. The experiment in a line: FDA drug screening, complete media vs cholesterol-free media without statin (TABLE 1). The experiment is classed as cell-based, human.
The test system of experiment [2] is NCI-H292 lung cancer cells. The experiment is described as follows: FDA drug screening, complete media vs cholesterol-free media with simvastatin (TABLE 2). The format is cell-based, human.
Setting [3] is: NCI-H292 cells, cholesterol-free media without statin, FDA drug library screen.
Where [4] appears, read: NCI-H292 cells, complete media, FDA drug library screen.
Where [5] appears, read: complete vs cholesterol-free media, >0 enhanced anti-cancer activity, about 0 neutral, <0 antagonist.
[6] abbreviates: NCI-H292 cells, cholesterol-free media with simvastatin 0.04 μM, FDA drug library screen (TABLE 2).
Setting [7] is: NCI-H292 cells, complete media, FDA drug library screen (TABLE 2).
The mark [8] stands for this setting: complete media minus cholesterol-free media + simvastatin (0.04 μM), >0 enhanced anti-cancer activity, about 0 neutral, <0 antagonist.
Where [9] appears, read: Complete minus Cholesterol-free, >0 enhanced anti-cancer activity, about 0 neutral, <0 antagonist.
Where [10] appears, read: NCI-H292 cells, cholesterol-free media without statin.
The mark [11] stands for this setting: complete media vs cholesterol-free media + simvastatin (0.04 μM), >0 enhanced anti-cancer activity, about 0 neutral, <0 antagonist.
[12] abbreviates: Complete minus Cholesterol-free, […].
Setting [13] is: NCI-H292 cells, FDA drug library screen, cholesterol-free media without statin.
[14] abbreviates: NCI-H292 cells, FDA drug library screen, complete media.
Where [15] appears, read: NCI-H292 cells, FDA drug library screen, cholesterol-free media with simvastatin 0.04 μM.
Where [16] appears, read: complete media minus cholesterol-free media + simvastatin, >0 enhanced anti-cancer activity, about 0 neutral, <0 antagonist.
The mark [17] stands for this setting: complete media minus cholesterol-free media + simvastatin (0.04 μM), […].
Where [18] appears, read: Complete minus Cholesterol-free, greater than 0 enhanced anti-cancer activity, about 0 neutral, below 0 antagonist.
[19] abbreviates: NCI-H292 cells, cholesterol-free media with simvastatin 0.04 μM, cell growth value in FDA drug screen.

Take `Cc1nc(Nc2ccc(F)cc2)nc(N2CCc3ccccc3C2C)c1C` (stereo not shown) [Revaprazan (hydrochloride)]: the Cholesterol-free in experiment [1] (setting [3]) is listed as 1.192. The compound further registered a Complete in experiment [1] (setting [4]) of 1.344. The Difference in experiment [1] (setting [5]) is given as 0.15; in experiment [2] (setting [8]) it was −0.07. The “Cholesterol-free media + simvastatin (0.04 μM)” value in experiment [2] (setting [6]) is 1.005. Besides, the “Complete Media” value in experiment [2] (setting [7]) is reported as 0.9357.

`C[N+]1(C)[C@@H]2CC(OC(=O)C(O)(c3cccs3)c3cccs3)C[C@H]1[C@@H]1O[C@@H]12.[Br-]` (stereo partly shown) [Tiotropium (Bromide)]: in experiment [1], the Cholesterol-free is 1.101, the Complete is recorded as 0.8685 and the Difference is reported as −0.23. In addition, in experiment [2], the “Cholesterol-free media + simvastatin (0.04 μM)” value was determined as 2.468, the “Complete Media” value was 1.196 and the Difference was −1.27.

Turning to `OCC(CO)N[C@H]1C[C@](O)(CO)[C@@H](O)[C@H](O)[C@H]1O` [Voglibose], in experiment [1], the Cholesterol-free was 1.147, the Complete came to 1.027 and the Difference is given as −0.12. Besides, in experiment [2], the “Cholesterol-free media + simvastatin (0.04 μM)” value is given as 0.9097, the “Complete Media” value amounted to 0.6837 and the Difference is listed as −0.23.

Take `O=C(c1ccc(F)c(F)c1Nc1ccc(I)cc1F)N1CC(O)([C@@H]2CCCCN2)C1` [Cobimetinib]: the Difference in experiment [1] (setting [9]) and in experiment [2] (setting [8]) was −0.06 in each case. This compound yielded a Cholesterol-free in experiment [1] (setting [3]) of 0.2958. In experiment [1] (setting [4]), this compound yielded a Complete of 0.2361. For the same compound, the “Cholesterol-free media + simvastatin (0.04 μM)” value in experiment [2] (setting [6]) worked out at 0.5825. In addition, in experiment [2] (setting [7]), the “Complete Media” value amounted to 0.5258.

As for `CC[N+](CC)(CC)CCOc1cccc(OCC[N+](CC)(CC)CC)c1OCC[N+](CC)(CC)CC` [Gallamine Triethiodide], the Difference is reported as −0.28 in experiment [1] (setting [9]) and −0.35 in experiment [2] (setting [11]). The Cholesterol-free in experiment [1] (setting [10]) amounted to 1.311. For the same compound, in experiment [1] (NCI-H292 cells, complete media), the Complete was found to be 1.029. For the same compound, in experiment [2] (NCI-H292 cells, FDA library drug in cholesterol-free media with simvastatin 0.04 μM), the “Cholesterol-free media + simvastatin (0.04 μM)” value is on record as 1.372. Further, the “Complete Media” value in experiment [2] (NCI-H292 cells, FDA library drug in complete media) was found to be 1.027.

Take Bulleyaconitine A: the Difference in experiment [1] (setting [12]) is −0.17; in experiment [2] (complete media minus cholesterol-free media + simvastatin, […]) it was 0.03. In addition, the Cholesterol-free in experiment [1] (setting [13]) is 1.261. Also, the Complete in experiment [1] (setting [14]) is 1.091.

For `COc1cc2nc(N(C)CCCNC(=O)C3CCCO3)nc(N)c2cc1OC` (stereo not shown) [Alfuzosin (hydrochloride)], the Difference in experiment [1] (setting [9]) is −0.22; in experiment [2] (setting [16]) it was 0.23. Moreover, in experiment [1] (setting [10]), the Cholesterol-free turned out to be 1.203. Moreover, the Complete in experiment [1] (NCI-H292 cells, complete media) is 0.9827. Moreover, in experiment [2] (setting [15]), the “Cholesterol-free media + simvastatin (0.04 μM)” value came out at 0.7758. Also, the “Complete Media” value in experiment [2] (setting [14]) was found to be 1.007.

`Cl.N=C(N)NCCC[C@H](N)C(=O)O` [L-Arginine (hydrochloride)]: the Difference in experiment [1] (setting [12]) is −0.16; in experiment [2] (setting [17]), −0.01. The Cholesterol-free in experiment [1] (setting [13]) stood at 1.414. Moreover, the Complete in experiment [1] (setting [14]) stood at 1.256. For the same compound, the “Cholesterol-free media + simvastatin (0.04 μM)” value in experiment [2] (setting [6]) is listed as 0.9293. Besides, the “Complete Media” value in experiment [2] (setting [7]) was found to be 0.9241.

Regarding Butoconazole (nitrate), the Difference is −0.19 in experiment [1] (setting [18]) and 0.74 in experiment [2] (setting [16]). In experiment [1] (setting [13]), the Cholesterol-free turned out to be 0.9845. Besides, the Complete in experiment [1] (setting [14]) is given as 0.7977. In experiment [2] (setting [15]), the “Cholesterol-free media + simvastatin (0.04 μM)” value was 0.1838. Moreover, the “Complete Media” value in experiment [2] (setting [14]) turned out to be 0.9232.

Regarding `O.O.O=C([O-])CC(O)(CC(=O)[O-])C(=O)[O-].[Na+].[Na+].[Na+]` [Sodium citrate (dihydrate)], in experiment [1], the Cholesterol-free amounted to 0.7144, the Complete is on record as 0.9967 and the Difference was 0.28. Moreover, in experiment [2], the “Cholesterol-free media + simvastatin (0.04 μM)” value amounted to 1.04, the “Complete Media” value stood at 1.108 and the Difference is given as 0.07.

With `CCCC(=O)O[C@]1(C(=O)COC(=O)CC)CC[C@H]2[C@@H]3CCC4=CC(=O)CC[C@]4(C)[C@H]3[C@@H](O)C[C@@]21C` [Hydrocortisone buteprate], the Difference in experiment [1] (setting [18]) was −0.17; in experiment [2] (setting [16]) it was 0.04. For the same compound, the Cholesterol-free in experiment [1] (setting [13]) is reported as 0.8122. In addition, in experiment [1] (setting [14]), the Complete was determined as 0.6382. The “Cholesterol-free media + simvastatin (0.04 μM)” value in experiment [2] (setting [19]) amounted to 0.6107. In experiment [2] (NCI-H292 cells, complete media, cell growth value in FDA drug screen), the “Complete Media” value was 0.6538.

As to `CC(C)(C)C(=O)OCOP(=O)(COCCn1cnc2c(N)ncnc21)OCOC(=O)C(C)(C)C` [Adefovir dipivoxil], the Difference in experiment [1] (setting [9]) was −0.04; in experiment [2] (setting [8]), −0.05. The compound further returned a Cholesterol-free in experiment [1] (setting [3]) of 0.1811. For the same compound, the Complete in experiment [1] (setting [4]) turned out to be 0.1375. In addition, the “Cholesterol-free media + simvastatin (0.04 μM)” value in experiment [2] (setting [6]) was found to be 0.2485. For the same compound, the “Complete Media” value in experiment [2] (setting [7]) is 0.1986.

As to `CC(=O)OC[C@H]1O[C@@H]([S-])[C@H](OC(C)=O)[C@@H](OC(C)=O)[C@@H]1OC(C)=O.CCP(CC)CC.[Au+]` [Auranofin], the Difference in experiment [1] (setting [12]) was 0.01; in experiment [2] (setting [17]) it was −0.01. In experiment [1] (setting [3]), the Cholesterol-free is −0.008527. In experiment [1] (setting [4]), this compound yielded a Complete of 0.0049. For the same compound, the “Cholesterol-free media + simvastatin (0.04 μM)” value in experiment [2] (setting [6]) is 0.01251. In addition, the “Complete Media” value in experiment [2] (setting [7]) is on record as 0.0008313.

Turning to `CCN1CCN(C(=O)N[C@@H](C(=O)N[C@@H]2C(=O)N3C(C(=O)O)=C(CSc4nnnn4C)CS[C@H]23)c2ccc(O)cc2)C(=O)C1=O` [Cefoperazone], the Cholesterol-free in experiment [1] (setting [3]) stood at 0.8233. The same compound gave a Complete in experiment [1] (setting [4]) of 1.132. The results for the Difference in experiment [1] (setting [5]) and in experiment [2] (setting [16]) were 0.31 and 0.69, respectively. In experiment [2] (setting [15]), the “Cholesterol-free media + simvastatin (0.04 μM)” value was 1.061. Further, the “Complete Media” value in experiment [2] (setting [14]) worked out at 1.748.

In the case of Clomiphene (citrate), the Difference was −0.25 in experiment [1] (setting [9]) and 0.85 in experiment [2] (setting [16]). For the same compound, the Cholesterol-free in experiment [1] (setting [10]) was determined as 1.001. The compound also had a Complete in experiment [1] (NCI-H292 cells, complete media) of 0.7484. Besides, in experiment [2] (setting [15]), the “Cholesterol-free media + simvastatin (0.04 μM)” value is reported as 0.1462. The “Complete Media” value in experiment [2] (setting [14]) amounted to 1.001.

With `Cc1cnc(NC(=O)C2=C(O)c3ccccc3S(=O)(=O)N2C)s1` [Meloxicam], in experiment [1] (NCI-H292 cells, complete media), the Complete was 0.7862. Also, the Difference in experiment [1] (complete vs cholesterol-free media, greater than 0 enhanced anti-cancer activity, about 0 neutral, below 0 antagonists) is reported as −0.39; in experiment [2] (setting [16]), 0.12. Further, the “Cholesterol-free media + simvastatin (0.04 μM)” value in experiment [2] (setting [19]) was determined as 1.111.

As to `Cc1ccc(NC(=O)c2ccc(CN3CCN(C)CC3)cc2)cc1Nc1nc(-c2cccnc2)cs1` [Masitinib], the values for the Difference in experiment [1] (setting [9]) and in experiment [2] (setting [11]) were −0.19 and −0.13, respectively. Further, the Cholesterol-free in experiment [1] (setting [10]) is 0.8775. The Complete in experiment [1] (NCI-H292 cells, complete media) came to 0.6881. The “Cholesterol-free media + simvastatin (0.04 μM)” value in experiment [2] (setting [15]) worked out at 0.9334. Also, in experiment [2] (setting [14]), the “Complete Media” value is given as 0.8067.

Regarding `N#Cc1ccc([C@H]2CCc3cncn32)c(F)c1` [Osilodrostat], the Difference was −0.71 in experiment [1] (Complete minus Cholesterol-free, greater than 0 enhanced anti-cancer activity, about 0 neutral, below 0 antagonists) and −0.11 in experiment [2] (setting [11]). In addition, the Cholesterol-free in experiment [1] (NCI-H292 cells in cholesterol-free media without statin) is given as 1.647. For the same compound, the Complete in experiment [1] (NCI-H292 cells in complete media) worked out at 0.935. Further, the “Cholesterol-free media + simvastatin (0.04 μM)” value in experiment [2] (setting [15]) was 1.26.

With `CN(C)C(=O)Oc1cccc([N+](C)(C)C)c1.[Br-]` [Neostigmine (Bromide)], in experiment [1], the Cholesterol-free was found to be 1.008, the Complete was found to be 0.8252 and the Difference is −0.18. Further, in experiment [2], the “Cholesterol-free media + simvastatin (0.04 μM)” value is 0.9188, the “Complete Media” value was found to be 1.066 and the Difference came out at 0.15.
